One may read the GI50 as the concentration giving 50% growth inhibition. One may read the TGI as the concentration giving total growth inhibition. Read a high TGI as lower sensitivity of the cells.

The values that follow come from PubChem BioAssay (NCI).

The structures appear in SMILES notation. Values joined by “and” are separate entries in the source; they are usually repeats but may differ in a detail not shown here. Equal entries are not always repeated.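 Method: 48-hour compound exposure of cells in 96-well plates, five concentrations, linear interpolation of endpoints. GI50 = concentration required for 50% inhibition of growth. TGI is the concentration that stops growth completely.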

What all share (test): DTP human tumour cell line panel, 48 h
For assay [1], the system named is NCI-H460 lung.
The subject of assay [2] is NCI/ADR-RES ovarian.
Assay [3] deals with SNB-75 CNS.
In assay [4] the test system is SR leukemia.
For assay [5], the system named is SK-OV-3 ovarian.
The test system of assay [6] is SK-MEL-28 melanoma.
Assay [7] has as its system HT29 colon.
Assay [8] concerns CAKI-1 renal.
The subject of assay [9] is PC-3 prostate.
Assay [10] concerns OVCAR-3 ovarian.

Turning to `OCCN1CCN(CCCN2c3ccccc3Sc3ccc(C(F)(F)F)cc32)CC1`, the GI50 in assay [1] was 1.82 µM and 9.47 µM and 4.83 µM; in assay [2], 3.28 µM and 10.8 µM and 9.73 µM; in assay [3] it was 2.04 µM and 10 µM and 6.62 µM; in assay [4] it was 2.05 µM and 3.56 µM and 1.9 µM; in assay [5], 5.55 µM and 14.5 µM and 13.3 µM; in [6], 0.91 µM and 2.48 µM and 2.2 µM. Also, the GI50 in assay [7] was 0.897 µM and 4.12 µM and 3.23 µM; in assay [8], 2.61 µM and 11.3 µM and 6.93 µM; in assay [9], 1.97 µM and 8.77 µM and 10.3 µM; in assay [10], 4.34 µM and 12.4 µM. Besides, the TGI in [1] was 6.69 µM and 28.4 µM and 23.3 µM; in assay [2], 10.4 µM and 23.4 µM and 23.5 µM; in assay [3], 9.16 µM and 22.4 µM and 21.8 µM; in assay [4], 6.46 µM and 13.2 µM and 5.51 µM; in assay [5], 11.7 µM and 29.1 µM and 27.3 µM; in assay [6], 1.66 µM and 7.16 µM and 5.98 µM. Also, the TGI in [7] was 1.78 µM and 13.9 µM and 11 µM; in assay [8], 9.5 µM and 25.7 µM and 21.6 µM; in assay [9], 8.14 µM and 21.6 µM and 23 µM; in assay [10], 10.6 µM and 25.5 µM.
For `Cc1c(Cl)cccc1NC(=O)CC1Sc2ccccc2NC1=O` (stereo not given), the TGI in [1] is 61.5 µM and 62.5 µM; in assay [2], 58.9 µM; in assay [3], 19 µM and 36.5 µM; in assay [4] it was 56.7 µM; in assay [5], 33 µM and 39.3 µM; in assay [6], more than 100 µM. Further, the TGI was 63.3 µM in assay [7]; 77.4 µM and > 100 µM in assay [8]; more than 86.5 µM in assay [9]; 31.2 µM and 41.9 µM in [10]. Also, the GI50 was 4.95 µM and 14.5 µM in assay [3]; 27.4 µM and 55 µM in assay [6].
With `COc1ccc2c(c1)O/C(=C\c1cccc(OCC(=O)Nc3nc4ccccc4s3)c1)C2=O`, the GI50 is more than 64.4 µM in assay [1]; 47 µM in assay [2]; 0.749 µM in assay [4]; more than 100 µM in assay [5]; more than 72 µM in [6]; more than 58.7 µM in [7]. The figures for the GI50 in assay [8], in assay [9] and in assay [10] were 3.04 µM, 8.46 µM and 3.16 µM, respectively. The TGI was more than 100 µM in assay [1]; more than 100 µM in assay [2]; more than 24 µM in assay [3]; 2.42 µM in [4]; more than 100 µM in assay [5]; more than 100 µM in assay [6]. Further, the total growth inhibition concentration (TGI) was more than 100 µM in [7], more than 100 µM in [8], more than 100 µM in assay [9] and 9.56 µM in [10].
Consider `COC1=CC(c2ccc[nH]2)=N/C1=C\c1[nH]c(C)c(C(=O)CCC(=O)Oc2ccc3c(c2)CCC2C3CC[C@]3(C)C(=O)CC[C@@H]23)c1C` (stereo not given in full), for which the GI50 is 3.07 µM in assay [1]; 12.6 µM in [2]; more than 42.7 µM in [3]; 0.634 µM in assay [4]; more than 100 µM in assay [5]; more than 70.9 µM in assay [6]. Also, the GI50 is 0.839 µM in assay [7], 8.77 µM in [8], 6.52 µM in assay [9] and 17.5 µM in [10]. In addition, the concentration for total growth inhibition (TGI) in assay [1] is more than 100 µM; in assay [2], more than 100 µM; in [3], more than 96.6 µM; in assay [4], more than 100 µM; in assay [5], more than 100 µM; in assay [6] it was more than 100 µM. Besides, the TGI in assay [7], in [8], in assay [9] and in assay [10] was more than 100 µM throughout.
Turning to `O=C1C(=O)c2ccc(Br)cc2-c2cc(Br)ccc21`, the GI50 was 4.5 µM in assay [1]; 1.59 µM in assay [2]; more than 54.6 µM in assay [3]; 0.998 µM in [4]; 29.1 µM in assay [5]; 5.52 µM in assay [6]. Besides, the GI50 in assay [7] was more than 74.3 µM; in assay [8], 2.09 µM; in assay [9] it was 20.3 µM; in assay [10], 0.619 µM. For the same compound, the TGI in assay [1] is more than 89.2 µM; in assay [2], 8.12 µM; in assay [3] it was more than 100 µM; in assay [4], 2.92 µM; in assay [5] it was more than 87.5 µM; in assay [6], more than 55.5 µM. Also, the concentration for total growth inhibition (TGI) in [7] was more than 100 µM; in [8], 9.92 µM; in assay [9], more than 96.6 µM; in assay [10], 1.36 µM.
For `CCN(CC)c1ccc(NC(C(=O)c2ccccc2)c2ccccc2)cc1` (stereo not given), the GI50 in assay [1] was 3.08 µM; in assay [2], 2.54 µM; in assay [3], 2.24 µM; in assay [4], 0.594 µM; in assay [5] it was 18.6 µM; in assay [6], 1.81 µM. Moreover, the GI50 in assay [7] was 3.19 µM; in [8], 3.36 µM; in assay [9], 3.62 µM; in assay [10], 3.05 µM. Moreover, the total growth inhibition concentration (TGI) in assay [1] was 11.4 µM; in assay [2], 6.21 µM; in [3], 10.7 µM; in [4], more than 100 µM; in assay [5] it was 78.3 µM; in assay [6], 3.6 µM. Besides, the total growth inhibition concentration (TGI) was more than 100 µM in [7], 11.6 µM in assay [8], 16.8 µM in [9] and 8.15 µM in assay [10].
`Cc1cc(N(CCCl)CCCl)ccc1C=Nc1cccnc1`: the 50% growth inhibitory concentration (GI50) in [1] was 0.369 µM; in assay [2] it was 12.1 µM; in assay [3], 11.5 µM; in [4] it was 0.695 µM; in [5], 7.57 µM; in assay [6] it was more than 77.8 µM. Moreover, the GI50 is more than 79 µM in [7], 2.46 µM in assay [8], 22.9 µM in [9] and 5.33 µM in assay [10]. Also, the total growth inhibition concentration (TGI) in assay [1] was more than 47.7 µM; in assay [2], more than 95.4 µM; in assay [3], more than 100 µM; in assay [4], more than 100 µM; in assay [5], more than 59.3 µM; in assay [6], more than 100 µM. The TGI in assay [7] is more than 100 µM; in assay [8] it was more than 43.1 µM; in [9], more than 100 µM; in assay [10] it was 31.7 µM.
Take `CC1(C)CCC(S(=O)(=O)c2ccc3c(c2)/C(=N\O)c2cc(S(=O)(=O)N4CCC(O)(c5cccc(C(F)(F)F)c5)CC4)ccc2-3)CC1`: the GI50 was 0.0261 µM in [1]; 3.14 µM in assay [2]; 0.0158 µM in assay [3]; 0.0174 µM in assay [4]; 0.0238 µM in assay [5]; 0.0505 µM in assay [6]. Moreover, the 50% growth inhibitory concentration (GI50) is 0.0257 µM in assay [7], 0.0752 µM in assay [8], 0.0238 µM in assay [9] and 0.0211 µM in assay [10]. In addition, the TGI in [1] amounted to 0.0613 µM; in assay [3], 0.0349 µM; in assay [4], 0.0443 µM; in [5], 0.0593 µM; in assay [6] it was 0.446 µM; in assay [7] it was 0.0723 µM. In addition, the figures for the TGI in [8], in assay [9] and in assay [10] were 1.14 µM, 0.0585 µM and 0.0442 µM, respectively.
